Where two headings read alike, the source gives them in different places.
Legend:
[1] = target: PLK2 (Homo sapiens (Human), UniProt Q9NYY3); assay: PLK2 kinase activity in vitro, 33P isotope-labeled kinase activity test; assay type: biochemical; details: 33P-ATP 30 μM, PLK2 15 nM
Procedure: (§1) The ^33P isotope-labeled kinase activity test (Reaction Biology Corp) was used to determine the IC50 value to evaluate the inhibitory ability of the test compound to the human PLK family protein kinase PLK2/PLK3/PLK4.
(§2) Buffer conditions: 20 mM HEPES (pH 7.5), 10 mM MgC2, 1 mM EGTA, 0.01% Brij35, 0.02 mg/ml BSA, 0.1 mM Na3VO4, 2 mM DTT, 1% DMSO.
(§3) Test steps: At room temperature, the compounds to be tested were dissolved in DMSO to prepare a 10 mM solution for use. The substrate Casein was dissolved in the freshly prepared buffer (with a final concentration of 20 μM), and the tested PLK2/PLK3/PLK4 kinases (with a final concentration of 15/10/150 nM, respectively) were added thereto and mixed well. The acoustic wave pipetting system Echo 550 was used to add the mother solution of the test compound dissolved in DMSO to the above mixed reaction mixture according to the set final concentration gradient (the highest final concentration was 1 μM, 3-fold dilution, 10 gradients). After incubation at room temperature for 20 minutes, ^33P-ATP (with a final concentration of 30/50/10 μM, respectively) was added, then after incubation at room temperature for 120 minutes, the reaction mixture was spotted on P81 ion exchange filter paper (Whatman #3698-915).

[2] = test system: HCT116 cells; assay: HCT116 cytological activity in vitro (3D CellTiter-Glo proliferation); assay type: cell-based, human; details: Homo sapiens, HCT-116, 120 h, 5 days culture, ultra-low adsorption plates
Procedure: McCoy's 5A medium, penicillin/streptomycin antibiotics was purchased from Vicente, and fetal bovine serum was purchased from Biosera. 3D CellTiter-Glo (cell viability chemiluminescence assay reagent) reagent was purchased from Promega. HCT116 cell line was purchased from Nanjing Cobioer Biosciences Co., Ltd. Envision multimode microplate reader (PerkinElmer).
HCT116 cells were seeded in ultra-low adsorption 96-well U-plates, 80 μL of cell suspension per well, which contained 1000 HCT116 cells. Cell plates were cultured overnight in a carbon dioxide incubator.
The compound to be tested was 5-fold diluted to the 9th concentration with a pipette, that is, diluted from 2 mM to 5.12 nM, and a double-well experiment was set up. 78 μL of medium was added to the intermediate plate, and then 2 μL of each well of the gradient diluted compound was transferred to the intermediate plate according to the corresponding position, 20 μL of each well was transferred to the cell plate after mixing well. Compound concentrations transferred to cell plates ranged from 10 μM to 0.0256 nM. Cell plates were cultured in a carbon dioxide incubator for 5 days. Another cell plate was prepared, and the signal value was read as the maximum value (Max value in the following equation) on the day of drug addition to participate in data analysis.
Every 100 μL of cell viability chemiluminescent detection reagent was added to the cell plate, and incubated at room temperature for 10 minutes to stabilize the luminescent signal. A multimode microplate reader was used to read.
The equation (Sample−Min)/(Max−Min)*100% was used to convert the original data into an inhibition rate, and the value of IC50 can be obtained by curve fitting with four parameters (“log(inhibitor) vs. response in GraphPad Prism—Variable slope” mode). Table 3 provides the inhibitory activity of the compounds of the present disclosure against the proliferation of HCT116 cells.

[3] = target: PLK4 (Homo sapiens (Human), UniProt O00444); assay: PLK4 kinase activity in vitro, 33P isotope-labeled kinase activity test; assay type: biochemical; details: 33P-ATP 10 μM, PLK4 150 nM
Procedure: as §1, §2, §3

[4] = target: PLK3 (Homo sapiens (Human), UniProt Q9H4B4); assay: PLK3 kinase activity in vitro, 33P isotope-labeled kinase activity test; assay type: biochemical; details: 33P-ATP 50 μM, PLK3 10 nM
Procedure: as §1, §2, §3

[5] = Pharmacokinetic study in CD-1 male mice by oral administration and intravenous injection; assay type: in vivo; details: mouse, plasma; for AUC(0-t): read-out: Area under the plasma concentration-time curve AUC0-24 h
From the text: The purpose of this experiment is to study the pharmacokinetics of the test compound in the plasma of CD-1 male mice after intravenous injection and oral administration.
Intravenous injection group: an appropriate amount of the test compound was weighed and dissolved in 20% SBE-b-CD aqueous solution and the pH was adjusted to 4 to 5 with 6 M hydrochloric acid, and the mixture was vortexed for 2, minutes to obtain a clear solution, and then pH was adjusted around 7 with 5 N sodium hydroxide, and the mixture was vortexed for 1 minute to prepare a 1.5 mg/mL clear solution, which was filtered through a 0.22 μm microporous membrane for later use. CD-1 male mice from 6 to 10 weeks old were selected and given a solution of the test compound intravenously. Samples were collected at 0.083, 0.25, 0.5, 1, 2, 4, 6, 8, and 24 hours.
Oral administration group: an appropriate amount of the test compound was weighed and dissolved in 20% SBE-b-CD aqueous solution, and the pH was adjusted to 3 to 4 with 6 M hydrochloric acid, and the mixture was vortexed for 2, minutes to obtain a clear solution, and then pH was adjusted around 7 with 5 N sodium hydroxide, and mixture was vortexed for 1 minute to prepare a 2.0 mg/mL clear solution for later use. CD-1 male mice between 6 and 10 weeks of age were selected and given the test compounds orally. Samples were collected at 0.25, 0.5, 1, 2, 4, 6, 8, 10, and 24 hours.
Approximately 50 μL of whole blood was collected through the jugular vein at each time point for plasma preparation for concentration determination by high performance liquid chromatography-tandem mass spectrometry (LC-MS/MS). All animals were euthanized under CO2 anesthesia after collecting the PK samples at the last time point. The plasma concentration was processed using the non-compartmental model of WinNonlin™ Version 6.3 (Pharsight, Mountain View, CA) pharmacokinetic software, and the pharmacokinetic parameters were calculated using the linear logarithmic trapezoidal method, and the experimental results are shown in Table 4.

[6] = test system: human colon cancer HCT116 cells subcutaneous xenograft tumor; assay: In vivo pharmacodynamic study, subcutaneous xenograft tumor model of human colon cancer HCT116 cells; parameters: species or system BALB/c Nude mouse; details: tumor volume on day 22 after dosing
Procedure: In this experiment, human colon cancer HCT116 cells were subcutaneously transplanted into BALB/c Nude mouse model to evaluate the antitumor effect of the test compound in vivo.
HCT116 cell culture: 10% fetal calf serum was added to McCoy's 5A medium and cultured in 37° C. 5% CO2 cell incubator. When the cell saturation reached 80% to 90% and the number reached the requirement, cells were collected, counted and inoculated subcutaneously into BALB/c Nude mice (female, 6 to 7 weeks old)
When the tumors grew to a certain size, the animals with tumor volumes that were too large, too small, or with irregular tumor shapes were eliminated, and animals with tumor volumes ranging from 103.12 to 174.35 mm^3 were selected. According to the tumor volume, the animals were divided into 6 groups by random block method, and each group was composed of 6 mice wherein the average volume of the tumor was about 147.12 mm^3 , and the experimental grouping and dosing regimen were shown in Table 5 below. The health status and death of the animals were monitored every day. Routine inspections included observation of tumor growth and the effects of drug treatment on the daily behavior of the animals, such as behavioral activities, food and water intake, body weight changes (measured twice a week), tumor size (tumor volume was measured twice a week), appearance signs or other abnormal conditions.
The formula for calculating tumor volume (TV) was: ½×a×b^2, where a and b were the measured length and width of the tumor, respectively. The formula for calculating the tumor inhibition rate TGI (%) was: TGI (%)=[1−(average tumor volume at the end of administration of a certain treatment group−average tumor volume at the beginning of administration of this treatment group)/(average tumor volume at the end of treatment of the solvent control group−average tumor volume at the beginning of treatment in solvent control group)]×100%.
In this study, the experimental data were expressed as Mean±SEM. Statistical analysis was based on the data of RTV at the end of the experiment using IBM SPSS Statistics software. The comparison between two groups was analyzed by T test, and the comparison between three or more groups was analyzed by one-way ANOVA. If the variances were homogeneous (the F value had no significant difference), the Tukey's method was used for analysis. If the variances were not homogeneous (the F value had significant differences), and the Games-Howell method was used for testing. p<0.05 was considered as a significant difference.

Sequence of PLK2 (Q9NYY3 whole entry): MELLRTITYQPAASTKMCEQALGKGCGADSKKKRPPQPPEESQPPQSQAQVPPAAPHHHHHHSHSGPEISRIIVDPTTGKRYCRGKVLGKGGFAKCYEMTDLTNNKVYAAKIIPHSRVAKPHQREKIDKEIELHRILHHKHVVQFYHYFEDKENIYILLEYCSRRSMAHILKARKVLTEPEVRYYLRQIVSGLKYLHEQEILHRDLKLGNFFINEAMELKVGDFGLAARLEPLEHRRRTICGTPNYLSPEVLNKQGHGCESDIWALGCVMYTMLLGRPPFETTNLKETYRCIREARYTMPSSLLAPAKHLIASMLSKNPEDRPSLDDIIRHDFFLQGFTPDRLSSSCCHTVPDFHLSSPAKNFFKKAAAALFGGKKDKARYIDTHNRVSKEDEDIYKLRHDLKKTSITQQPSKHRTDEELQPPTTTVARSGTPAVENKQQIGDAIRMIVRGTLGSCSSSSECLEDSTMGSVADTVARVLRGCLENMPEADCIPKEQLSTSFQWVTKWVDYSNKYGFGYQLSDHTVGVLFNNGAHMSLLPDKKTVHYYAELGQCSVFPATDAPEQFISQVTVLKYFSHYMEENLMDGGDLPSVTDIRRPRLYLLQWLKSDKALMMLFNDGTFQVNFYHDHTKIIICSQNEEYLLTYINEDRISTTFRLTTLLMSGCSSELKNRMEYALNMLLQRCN
Sequence of PLK3 (Q9H4B4 whole entry): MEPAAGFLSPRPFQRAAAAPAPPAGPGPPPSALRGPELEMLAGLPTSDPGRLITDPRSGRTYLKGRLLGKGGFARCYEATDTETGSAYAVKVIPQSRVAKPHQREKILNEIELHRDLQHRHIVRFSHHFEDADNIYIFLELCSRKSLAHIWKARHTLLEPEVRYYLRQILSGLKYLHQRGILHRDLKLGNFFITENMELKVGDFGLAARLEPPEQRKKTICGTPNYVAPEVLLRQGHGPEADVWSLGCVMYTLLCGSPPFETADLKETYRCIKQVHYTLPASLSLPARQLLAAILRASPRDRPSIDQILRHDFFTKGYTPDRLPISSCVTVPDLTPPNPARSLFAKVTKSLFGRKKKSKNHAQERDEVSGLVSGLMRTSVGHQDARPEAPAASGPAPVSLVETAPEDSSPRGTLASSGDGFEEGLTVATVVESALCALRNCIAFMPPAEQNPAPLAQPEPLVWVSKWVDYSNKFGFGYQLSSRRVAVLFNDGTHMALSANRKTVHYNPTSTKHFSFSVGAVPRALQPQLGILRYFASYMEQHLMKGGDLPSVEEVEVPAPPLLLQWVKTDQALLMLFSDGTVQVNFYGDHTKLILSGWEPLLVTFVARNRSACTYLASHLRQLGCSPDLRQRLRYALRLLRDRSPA
Sequence of PLK4 (O00444 whole entry): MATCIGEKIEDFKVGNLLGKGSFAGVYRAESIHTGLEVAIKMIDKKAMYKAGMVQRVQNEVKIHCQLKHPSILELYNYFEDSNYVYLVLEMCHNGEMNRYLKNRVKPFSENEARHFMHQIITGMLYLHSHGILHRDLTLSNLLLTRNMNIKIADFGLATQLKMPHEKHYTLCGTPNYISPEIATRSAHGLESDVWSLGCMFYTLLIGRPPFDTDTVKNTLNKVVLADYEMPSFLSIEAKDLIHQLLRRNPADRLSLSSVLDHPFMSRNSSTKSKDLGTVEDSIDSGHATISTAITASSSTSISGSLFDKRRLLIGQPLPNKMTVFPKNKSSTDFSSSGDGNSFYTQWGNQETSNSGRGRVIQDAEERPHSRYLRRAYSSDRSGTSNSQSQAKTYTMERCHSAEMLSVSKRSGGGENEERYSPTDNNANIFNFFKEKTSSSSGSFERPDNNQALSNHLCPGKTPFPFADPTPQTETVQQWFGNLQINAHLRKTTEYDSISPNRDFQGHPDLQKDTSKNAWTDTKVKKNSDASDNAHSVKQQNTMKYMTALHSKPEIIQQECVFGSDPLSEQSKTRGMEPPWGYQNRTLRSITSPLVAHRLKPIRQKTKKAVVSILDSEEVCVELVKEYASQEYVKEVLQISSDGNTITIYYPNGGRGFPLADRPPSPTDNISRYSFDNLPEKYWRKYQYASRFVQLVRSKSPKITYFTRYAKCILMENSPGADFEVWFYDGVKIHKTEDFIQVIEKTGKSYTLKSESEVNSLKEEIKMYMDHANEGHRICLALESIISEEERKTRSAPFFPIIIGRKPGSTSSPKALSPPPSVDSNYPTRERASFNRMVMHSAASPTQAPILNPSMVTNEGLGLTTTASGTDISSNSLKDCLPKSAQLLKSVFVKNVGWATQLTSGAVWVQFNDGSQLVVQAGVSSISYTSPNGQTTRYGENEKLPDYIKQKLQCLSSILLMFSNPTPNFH

IC50 [1]: > 10 µM | IC50 [2]: 0.027 µM | IC50 [3]: > 10 µM | IC50 [4]: > 10 µM | Vd ([5]; IV, 0.5 mg/kg, read-out: Apparent volume of distribution Vdss): 3.37 L/kg | AUC(0-t) ([5]; IV, 0.5 mg/kg): 0.41 µM·h | clearance ([5]; IV, 0.5 mg/kg, read-out: Clearance CL): 37.8 mL/min/kg | half-life ([5]; IV, 0.5 mg/kg, read-out: Half-life T½ (converted)): 1.47 h | AUC(0-t) ([5]; PO, 2.0 mg/kg): 1.05 µM·h | Cmax ([5]; PO, 2.0 mg/kg, read-out: Peak concentration Cmax): 386 nM | Tmax ([5]; PO, 2.0 mg/kg, read-out: Peak time Tmax): 0.75 h | bioavailability ([5]; PO 2.0 mg/kg vs IV 0.5 mg/kg, read-out: Bioavailability F): 66.4%
Compound: CSc1sc(C(N)=O)c2c1-c1nc(Nc3cc(N4CCN(C)CC4)ccc3OC(F)(F)F)ncc1CC2 [Compound 1]
TGI ([6]; 30 mg/kg PO QD (5 days on, 2 days off)): 72.9% | TGI ([6]; 45 mg/kg PO QD (5 days on, 2 days off)): 87.3%

— patent US20240140962A1, “5,6-DIHYDROTHIENO[3,4-H]QUINAZOLINE COMPOUND” (MEDSHINE DISCOVERY INC., priority 2021, published 2024)
